Common to all, as to assay: inhibition of tumour cell growth, NCI panel, 48 h
The subject of experiment [1] is CCRF-CEM leukemia.
Experiment [2] deals with COLO 205 colon.
For experiment [3], the system named is HOP-62 NSCLC.
For experiment [4], the system named is NCI-H226 lung.
The test system of experiment [5] is SK-OV-3 ovarian.
Experiment [6] concerns SN12C renal.
The subject of experiment [7] is SNB-19 CNS.
For experiment [8], the system named is SW-620 colon.
Experiment [9] relates to PC-3 prostate.

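Assay format: 96-well plates, 48-hour exposure. GI50 marks 50% less growth. At the TGI there is no net growth.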 Some results are limits rather than exact numbers.

Take `N#C/C(=C\c1cc(O)cc(O)c1)C(N)=O`: the TGI in experiment [1], in experiment [2], in experiment [3], in experiment [4], in experiment [5] and in experiment [6] was greater than 100 µM throughout. Further, the TGI in experiment [7] and in experiment [8] was greater than 100 µM throughout.
Regarding `O=C(CCC(=O)Nc1ccc(Cl)c(Cl)c1)Cc1nc2ccccc2o1`, the TGI in experiment [1], in experiment [2], in experiment [3], in [4], in experiment [5] and in experiment [6] was greater than 100 µM in each case. The TGI in experiment [7] and in experiment [8] was greater than 100 µM each time.
With `CCC[C@H]1O[C@@H]2CC(=O)O[C@@H]2C2=C1C(=O)C=CC2=O`, the TGI in experiment [1] was greater than 47.9 µM; in experiment [2], 9.03 µM; in experiment [3] it was greater than 95 µM; in [4], 18.4 µM; in experiment [5], greater than 56.3 µM; in [6] it was 32.6 µM. Besides, the TGI in [7] was greater than 100 µM; in experiment [8] it was 35.7 µM.
For the compound `O=C(C(=O)c1cc2ccccc2[nH]1)c1cc2ccccc2[nH]1`, the TGI in experiment [1], in experiment [2], in [3], in experiment [4], in experiment [5] and in experiment [6] was greater than 347 µM each time. Moreover, the TGI in experiment [7] and in experiment [8] was greater than 347 µM in each case.
With `CC1(C)OC2C(CCP(=O)(O)O)OC(c3nc(C(N)=O)cs3)C2O1` (stereo not drawn), the TGI in experiment [1], in experiment [2], in experiment [4], in [5], in experiment [6] and in experiment [7] was greater than 100 µM each time. This compound showed a TGI in experiment [8] greater than 100 µM.
On to `NC(=O)NNC(=O)CCn1[nH]c(=O)c(Cl)c(Cl)c1=O`, for which the TGI in [1], in [2], in [3], in experiment [4], in experiment [5] and in experiment [6] was greater than 100 µM in each case. Moreover, the TGI in [7] and in experiment [8] was greater than 100 µM in each case.
For `O=C(CSc1nc2c(n1Nc1ccccc1)-c1ccccc1SC2)Nc1nc(-c2ccc(Cl)cc2)cs1`, the GI50 in [2] was 4.1 µM; in experiment [3] it was 14 µM; in experiment [4], 29.9 µM; in experiment [9], greater than 100 µM; in experiment [5] it was 11.8 µM; in experiment [6], greater than 100 µM. Further, in experiment [7], the GI50 was 15.3 µM. Besides, the TGI in [2] was greater than 100 µM; in experiment [3], 34 µM; in [4], greater than 100 µM; in [9] it was greater than 100 µM; in experiment [5], 29.5 µM; in experiment [6] it was greater than 100 µM. Moreover, in experiment [7], the TGI was found to be 63.5 µM.
As to `C=CSCCC(N)C(=O)O` (stereo not drawn), the TGI in experiment [1], in experiment [2], in [3], in experiment [4], in experiment [6] and in [7] was greater than 100 µM throughout. In [8], the TGI is greater than 100 µM.
For `CCOC(OC(C)=O)[C@@H]1C=C[C@H](C)N(c2ccc([N+](=O)[O-])cc2)O1` (stereo partly drawn), the TGI was greater than 21.8 µM in [1]; 27.7 µM in experiment [2]; 31.6 µM in experiment [3]; 14 µM in experiment [4]; 35.3 µM in [5]; 22.3 µM in experiment [6]. The TGI in experiment [7] came out at 37.4 µM; in experiment [8], 9.2 µM.
For `COC1CCC(OS(C)(=O)=O)C(CO)O1` (stereo not drawn), the TGI in [1], in experiment [3], in experiment [5], in [6] and in [8] was greater than 100 µM in each case.
As for `CCN(CC)CCCNc1nccc2c(C)c3c(cc12)c1cnccc1n3C`, the TGI is 0.415 µM in experiment [1]; 1.4 µM in experiment [2]; 0.571 µM in [3]; 2.73 µM in [5]; 1.75 µM in experiment [6]; 1.51 µM in experiment [7]. In experiment [8], this compound had a TGI of 1.48 µM.
For `COc1ccc(Cc2c3cc(O)c(=O)cc-3ccn2C)cc1`, the TGI in experiment [1] was greater than 76.3 µM; in experiment [2], greater than 100 µM; in experiment [3] it was 82.4 µM; in experiment [4], 83.3 µM; in experiment [5] it was greater than 100 µM; in experiment [6], greater than 100 µM. Further, the TGI in experiment [7] and in [8] was greater than 100 µM each time.
On to `NNC(=O)C(=O)N/N=C(\CCCC(=O)Nc1ccc(Cl)cc1)CC(=O)c1ccc(F)cc1`, for which the TGI in experiment [1], in experiment [2], in experiment [3], in experiment [4], in [6] and in [7] was greater than 100 µM throughout. The TGI in experiment [8] is greater than 100 µM.
As to `C=C(CCCCC)CN1CCCC1C(C)=O` (stereo not drawn), the TGI was 41.2 µM in experiment [1]; 32.4 µM in experiment [2]; 64.1 µM in [3]; 68.9 µM in [4]; greater than 100 µM in [5]; 98.6 µM in experiment [6]. Further, the TGI in experiment [7] and in [8] was greater than 100 µM throughout.
`C=CCNC(=O)NCCCCC(NC(C)=O)C(=O)NCc1ccccc1` (stereo not drawn): the TGI in experiment [1], in [2], in experiment [3], in experiment [4], in experiment [5] and in experiment [6] was greater than 100 µM each time. For the same compound, the TGI in [7] and in experiment [8] was greater than 100 µM in each case.
For the compound `CC(C)(C)C1=CC(=C(P(=O)(O)O)P(=O)(O)O)C=C(C(C)(C)C)C1=O`, the TGI in experiment [1], in experiment [3], in experiment [4], in [5], in experiment [7] and in [8] was greater than 50 µM throughout.
For the compound `COC(=O)c1cc2c(=O)n(C)c3ccccc3n2c1C(=O)OC`, the TGI in [1] is greater than 100 µM; in experiment [2], greater than 100 µM; in experiment [3] it was 36.9 µM; in experiment [4], 81.2 µM; in [5], 66.8 µM; in experiment [6] it was greater than 100 µM. Besides, the TGI in experiment [7] and in [8] was greater than 100 µM in each case.

Values taken from PubChem BioAssay (NCI).
